# Source: US20240109972A1, “ANTIBODY AND TAXANE COMBINATION THERAPY” (Genmab A/S, priority 2020, published 2024)
# Test system: solid malignant tumors
# Assay: GEN1046 Phase I dose escalation (NCT03917381), response by RECIST v1.1
# Assay type: in vivo, human
# Settings: for CR (Complete Response), patients / Confirmed CR (Complete Response), patients / Confirmed Disease Control (PR + PR + SD) Rate, % / Confirmed Disease Control (PR + PR + SD) Rate, patients / Confirmed NE (Not Evaluable), % of patients / Confirmed NE (Not Evaluable), patients / Confirmed Objective Response (CR + PR) Rate, patients / Confirmed PD (Progressive Disease), % of patients / Confirmed PD (Progressive Disease), patients / Confirmed PR (Partial Response), patients / Confirmed SD (Stable Disease), % of patients / Confirmed SD (Stable Disease), patients / Disease Control (PR + PR + SD) Rate, % / Disease Control (PR + PR + SD) Rate, patients / NE (Not Evaluable), % of patients / NE (Not Evaluable), patients / Objective Response (CR + PR) Rate, patients / PD (Progressive Disease), % of patients / PD (Progressive Disease), patients / PR (Partial Response), patients / Confirmed Objective Response (CR + PR) Rate, % / Confirmed PR (Partial Response), % of patients / Objective Response (CR + PR) Rate, % / PR (Partial Response), % of patients: Oct. 12, 2020; for BOR Complete Response, (percent) / BOR Complete Response, patients / BOR Partial Response, (percent) / BOR Partial Response, patients / BOR Progressive Disease, (percent) / BOR Progressive Disease, patients / BOR Stable Disease, (percent) / BOR Stable Disease, patients: 3 Feb. 2020
# Source text: The resistance to, failure to respond to and/or relapse from treatment with a binding agent of the invention and/or other therapeutic agent(s) may be determined according to the Response Evaluation Criteria In Solid Tumors; version 1.1 (RECIST Criteria v1.1).
# The “best overall response” is the best response recorded from the start of the treatment until disease progression/recurrence (the smallest measurements recorded since the treatment started will be used as the reference for PD). Subjects with CR or PR are considered to be objective response. Subjects with CR, PR or SD are considered to be in disease control. Subjects with NE are counted as non-responders. […]
# Clinical trial on GCT1046-01 (ClinicalTrials.gov Identifier: NCT03917381) was designed as a two-part trial, including an ongoing dose escalation part and a planned expansion part.
# The trial consists of 2 parts; a First-in-Human (FIH) dose escalation (Phase I) and an expansion (Phase 11a).
# For dose escalation, subject was required to be a man or […] and was required to have measurable disease according to RECIST 1.1.
substance,measurement,setting,value
"GEN1046: PD-L1×4-1BB bispecific antibody: PD-L1-547-FEAL combined with CD137-009-HC7LC2-FEAR (SEQ ID NOs: 1, 5, 21, 19; 8, 12, 22, 20)","CR (Complete Response), patients",25 mg (N 4),0
same,"Confirmed CR (Complete Response), patients",25 mg (N 4),0
same,"Confirmed Disease Control (PR + PR + SD) Rate, %",25 mg (N 4),25.0%
same,"Confirmed Disease Control (PR + PR + SD) Rate, patients",25 mg (N 4),1
same,"Confirmed NE (Not Evaluable), % of patients",25 mg (N 4),25.0%
same,"Confirmed NE (Not Evaluable), patients",25 mg (N 4),1
same,"Confirmed Objective Response (CR + PR) Rate, patients",25 mg (N 4),0
same,"Confirmed PD (Progressive Disease), % of patients",25 mg (N 4),50.0%
same,"Confirmed PD (Progressive Disease), patients",25 mg (N 4),2
same,"Confirmed PR (Partial Response), patients",25 mg (N 4),0
same,"Confirmed SD (Stable Disease), % of patients",25 mg (N 4),25.0%
same,"Confirmed SD (Stable Disease), patients",25 mg (N 4),1
same,"Disease Control (PR + PR + SD) Rate, %",25 mg (N 4),25.0%
same,"Disease Control (PR + PR + SD) Rate, patients",25 mg (N 4),1
same,"NE (Not Evaluable), % of patients",25 mg (N 4),25.0%
same,"NE (Not Evaluable), patients",25 mg (N 4),1
same,"Objective Response (CR + PR) Rate, patients",25 mg (N 4),0
same,"PD (Progressive Disease), % of patients",25 mg (N 4),50.0%
same,"PD (Progressive Disease), patients",25 mg (N 4),2
same,"PR (Partial Response), patients",25 mg (N 4),0
same,"BOR Complete Response, (percent)",25 mg (n = 2),(0)
same,"BOR Complete Response, patients",25 mg (n = 2),0
same,"BOR Partial Response, (percent)",25 mg (n = 2),(0)
same,"BOR Partial Response, patients",25 mg (n = 2),0
same,"BOR Progressive Disease, (percent)",25 mg (n = 2),(100)
same,"BOR Progressive Disease, patients",25 mg (n = 2),2
same,"BOR Stable Disease, (percent)",25 mg (n = 2),(0)
same,"BOR Stable Disease, patients",25 mg (n = 2),0
same,"CR (Complete Response), patients",50 mg (N 5),0
same,"Confirmed CR (Complete Response), patients",50 mg (N 5),0
same,"Confirmed Disease Control (PR + PR + SD) Rate, %",50 mg (N 5),60.0%
same,"Confirmed Disease Control (PR + PR + SD) Rate, patients",50 mg (N 5),3
same,"Confirmed NE (Not Evaluable), patients",50 mg (N 5),0
same,"Confirmed Objective Response (CR + PR) Rate, patients",50 mg (N 5),0
same,"Confirmed PD (Progressive Disease), % of patients",50 mg (N 5),40.0%
same,"Confirmed PD (Progressive Disease), patients",50 mg (N 5),2
same,"Confirmed PR (Partial Response), patients",50 mg (N 5),0
same,"Confirmed SD (Stable Disease), % of patients",50 mg (N 5),60.0%
same,"Confirmed SD (Stable Disease), patients",50 mg (N 5),3
same,"Disease Control (PR + PR + SD) Rate, %",50 mg (N 5),60.0%
same,"Disease Control (PR + PR + SD) Rate, patients",50 mg (N 5),3
same,"NE (Not Evaluable), patients",50 mg (N 5),0
same,"Objective Response (CR + PR) Rate, patients",50 mg (N 5),0
same,"PD (Progressive Disease), % of patients",50 mg (N 5),40.0%
same,"PD (Progressive Disease), patients",50 mg (N 5),2
same,"PR (Partial Response), patients",50 mg (N 5),0
same,"BOR Complete Response, (percent)",50 mg (n = 5),(0)
same,"BOR Complete Response, patients",50 mg (n = 5),0
same,"BOR Partial Response, (percent)",50 mg (n = 5),(0)
same,"BOR Partial Response, patients",50 mg (n = 5),0
same,"BOR Progressive Disease, (percent)",50 mg (n = 5),(40)
same,"BOR Progressive Disease, patients",50 mg (n = 5),2
same,"BOR Stable Disease, (percent)",50 mg (n = 5),(60)
same,"BOR Stable Disease, patients",50 mg (n = 5),3
same,"CR (Complete Response), patients",80 mg (N 9),0
same,"Confirmed CR (Complete Response), patients",80 mg (N 9),0
same,"Confirmed Disease Control (PR + PR + SD) Rate, %",80 mg (N 9),88.9%
same,"Confirmed Disease Control (PR + PR + SD) Rate, patients",80 mg (N 9),8
same,"Confirmed NE (Not Evaluable), patients",80 mg (N 9),0
same,"Confirmed Objective Response (CR + PR) Rate, %",80 mg (N 9),11.1%
same,"Confirmed Objective Response (CR + PR) Rate, patients",80 mg (N 9),1
same,"Confirmed PD (Progressive Disease), % of patients",80 mg (N 9),11.1%
same,"Confirmed PD (Progressive Disease), patients",80 mg (N 9),1
same,"Confirmed PR (Partial Response), % of patients",80 mg (N 9),11.1%
same,"Confirmed PR (Partial Response), patients",80 mg (N 9),1
same,"Confirmed SD (Stable Disease), % of patients",80 mg (N 9),77.8%
same,"Confirmed SD (Stable Disease), patients",80 mg (N 9),7
same,"Disease Control (PR + PR + SD) Rate, %",80 mg (N 9),88.9%
same,"Disease Control (PR + PR + SD) Rate, patients",80 mg (N 9),8
same,"NE (Not Evaluable), patients",80 mg (N 9),0
same,"Objective Response (CR + PR) Rate, %",80 mg (N 9),22.2%
same,"Objective Response (CR + PR) Rate, patients",80 mg (N 9),2
same,"PD (Progressive Disease), % of patients",80 mg (N 9),11.1%
same,"PD (Progressive Disease), patients",80 mg (N 9),1
same,"PR (Partial Response), % of patients",80 mg (N 9),22.2%
same,"PR (Partial Response), patients",80 mg (N 9),2
same,"BOR Complete Response, (percent)",80 mg (n = 8),(0)
same,"BOR Complete Response, patients",80 mg (n = 8),0
same,"BOR Progressive Disease, (percent)",80 mg (n = 8),(12.5)
same,"BOR Progressive Disease, patients",80 mg (n = 8),1
same,"BOR Stable Disease, (percent)",80 mg (n = 8),(62.5)
same,"BOR Stable Disease, patients",80 mg (n = 8),5
same,"BOR Partial Response, (percent)","80 mg (n = 8), uPR",(25)
same,"BOR Partial Response, patients","80 mg (n = 8), uPR",2^1
same,"CR (Complete Response), patients",100 mg (N 6),0
same,"Confirmed CR (Complete Response), patients",100 mg (N 6),0
same,"Confirmed Disease Control (PR + PR + SD) Rate, %",100 mg (N 6),66.7%
same,"Confirmed Disease Control (PR + PR + SD) Rate, patients",100 mg (N 6),4
same,"Confirmed NE (Not Evaluable), % of patients",100 mg (N 6),33.3%
same,"Confirmed NE (Not Evaluable), patients",100 mg (N 6),2
same,"Confirmed Objective Response (CR + PR) Rate, %",100 mg (N 6),16.7%
same,"Confirmed Objective Response (CR + PR) Rate, patients",100 mg (N 6),1
same,"Confirmed PD (Progressive Disease), patients",100 mg (N 6),0
same,"Confirmed PR (Partial Response), % of patients",100 mg (N 6),16.7%
same,"Confirmed PR (Partial Response), patients",100 mg (N 6),1
same,"Confirmed SD (Stable Disease), % of patients",100 mg (N 6),50.0%
same,"Confirmed SD (Stable Disease), patients",100 mg (N 6),3
same,"Disease Control (PR + PR + SD) Rate, %",100 mg (N 6),66.7%
same,"Disease Control (PR + PR + SD) Rate, patients",100 mg (N 6),4
same,"NE (Not Evaluable), % of patients",100 mg (N 6),33.3%
same,"NE (Not Evaluable), patients",100 mg (N 6),2
same,"Objective Response (CR + PR) Rate, %",100 mg (N 6),16.7%
same,"Objective Response (CR + PR) Rate, patients",100 mg (N 6),1
same,"PD (Progressive Disease), patients",100 mg (N 6),0
same,"PR (Partial Response), % of patients",100 mg (N 6),16.7%
same,"PR (Partial Response), patients",100 mg (N 6),1
same,"CR (Complete Response), patients",140 mg (N 6),0
same,"Confirmed CR (Complete Response), patients",140 mg (N 6),0
same,"Confirmed Disease Control (PR + PR + SD) Rate, %",140 mg (N 6),50.0%
same,"Confirmed Disease Control (PR + PR + SD) Rate, patients",140 mg (N 6),3
same,"Confirmed NE (Not Evaluable), % of patients",140 mg (N 6),16.7%
same,"Confirmed NE (Not Evaluable), patients",140 mg (N 6),1
same,"Confirmed Objective Response (CR + PR) Rate, patients",140 mg (N 6),0
same,"Confirmed PD (Progressive Disease), % of patients",140 mg (N 6),33.3%
same,"Confirmed PD (Progressive Disease), patients",140 mg (N 6),2
same,"Confirmed PR (Partial Response), patients",140 mg (N 6),0
same,"Confirmed SD (Stable Disease), % of patients",140 mg (N 6),50.0%
same,"Confirmed SD (Stable Disease), patients",140 mg (N 6),3
same,"Disease Control (PR + PR + SD) Rate, %",140 mg (N 6),50.0%
same,"Disease Control (PR + PR + SD) Rate, patients",140 mg (N 6),3
same,"NE (Not Evaluable), % of patients",140 mg (N 6),16.7%
same,"NE (Not Evaluable), patients",140 mg (N 6),1
same,"Objective Response (CR + PR) Rate, patients",140 mg (N 6),0
same,"PD (Progressive Disease), % of patients",140 mg (N 6),33.3%
same,"PD (Progressive Disease), patients",140 mg (N 6),2
same,"PR (Partial Response), patients",140 mg (N 6),0
same,"BOR Complete Response, (percent)",140 mg (n = 1),(0)
same,"BOR Complete Response, patients",140 mg (n = 1),0
same,"BOR Partial Response, (percent)",140 mg (n = 1),(0)
same,"BOR Partial Response, patients",140 mg (n = 1),0
same,"BOR Progressive Disease, (percent)",140 mg (n = 1),(100)
same,"BOR Progressive Disease, patients",140 mg (n = 1),1
